Assays:
Assay in all cases: relative viability (nuclei count vs DMSO), 5 days (fraction); higher = more cells survive
IU1-47 + AZD7762 = compound: CC1=CC(=C(N1C2=CC=C(C=C2)Cl)C)C(=O)CN3CCCCC3 [IU1-47] + NC(=O)Nc1cc(-c2cccc(F)c2)sc1C(=O)N[C@H]1CCCNC1 [AZD7762] (partner 0.2 µM)
How it was run: (§1)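 Lung cancer cell lines were pin-tool dosed in 1536-well plates on the day after seeding, with either a lone drug or a fixed anchor-drug dose plus five library-drug doses (not always all listed) in √10 steps. Nuclei were counted on 4× images after 5 days. Relative viability is the ratio of treated-well to vehicle-well nuclei counts, with each value a median of duplicate plates.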

FG-4592 + Phenformin = compound: Cc1nc(C(=O)NCC(=O)O)c(O)c2ccc(Oc3ccccc3)cc12 [FG-4592] + N=C(N)NC(=N)NCCc1ccccc1 [Phenformin] (partner 250 µM)
How it was run: as §1

IU1-47 + Pemetrexed = compound: CC1=CC(=C(N1C2=CC=C(C=C2)Cl)C)C(=O)CN3CCCCC3 [IU1-47] + Nc1nc2[nH]cc(CCc3ccc(C(=O)N[C@@H](CCC(=O)O)C(=O)O)cc3)c2c(=O)[nH]1 [Pemetrexed] (partner 0.2 µM)
How it was run: as §1

IU1-47 + Tozasertib = compound: CC1=CC(=C(N1C2=CC=C(C=C2)Cl)C)C(=O)CN3CCCCC3 [IU1-47] + Cc1cc(Nc2cc(N3CCN(C)CC3)nc(Sc3ccc(NC(=O)C4CC4)cc3)n2)n[nH]1 [Tozasertib] (partner 0.1 µM)
How it was run: as §1

Cell Line | relative viability (IU1-47 + AZD7762; first compound 0.08 µM) | relative viability (IU1-47 + AZD7762; first compound 0.253 µM) | relative viability (IU1-47 + AZD7762; first compound 0.8 µM) | relative viability (IU1-47 + AZD7762; first compound 2.53 µM) | relative viability (IU1-47 + AZD7762; first compound 8 µM) | relative viability (FG-4592 + Phenformin; first compound 0.08 µM) | relative viability (FG-4592 + Phenformin; first compound 0.253 µM) | relative viability (FG-4592 + Phenformin; first compound 0.8 µM) | relative viability (FG-4592 + Phenformin; first compound 2.53 µM) | relative viability (FG-4592 + Phenformin; first compound 8 µM) | relative viability (IU1-47 + Pemetrexed; first compound 0.08 µM) | relative viability (IU1-47 + Pemetrexed; first compound 0.253 µM) | relative viability (IU1-47 + Pemetrexed; first compound 0.8 µM) | relative viability (IU1-47 + Pemetrexed; first compound 2.53 µM) | relative viability (IU1-47 + Pemetrexed; first compound 8 µM) | relative viability (IU1-47 + Tozasertib; first compound 0.08 µM) | relative viability (IU1-47 + Tozasertib; first compound 0.253 µM) | relative viability (IU1-47 + Tozasertib; first compound 0.8 µM) | relative viability (IU1-47 + Tozasertib; first compound 2.53 µM) | relative viability (IU1-47 + Tozasertib; first compound 8 µM)
PC-3 [JPC-3] | 0.72 | 0.856 | 0.866 | 0.828 | 0.741 | 0.489 | 0.457 | 0.531 | 0.462 | 0.486 | 1.13 | 1.12 | 1.04 | 0.774 | 1.07 | 0.913 | 0.903 | 0.922 | 0.851 | 0.773
PC-14 | 0.404 | 0.345 | 0.377 | 0.314 | 0.275 | 0.628 | 0.505 | 0.411 | 0.667 | 0.558 | 0.169 | 0.129 | 0.171 | 0.153 | 0.144 | 0.707 | 0.685 | 0.661 |  | 0.581
RERF-LC-KJ | 1.42 | 1.17 | 1.18 | 0.6 | 0.823 | 0.378 | 0.324 | 0.418 | 0.538 | 0.481 | 0.503 | 0.454 | 0.523 | 0.389 | 0.479 | 0.495 | 0.567 | 0.522 | 0.452 | 0.405
SW 900 | 0.694 |  | 0.695 | 0.611 | 0.683 | 0.584 | 0.687 | 0.439 | 0.47 | 0.586 | 0.478 |  | 0.495 | 0.472 | 0.383 | 0.512 | 0.54 | 0.615 | 0.439 | 0.469

Reference: the supplement of paper PMC10307832
